Read-outs that look alike come from different tables or passages of the source.
Legend:
[1] = Solubility, qualitative test
Description: (1 picture or pasted object on this page, not shown here)
(§1) For competition experiments, the anisotropies were determined as for the direct titration and then plotted against inhibitor concentration and fit (equation 5) to determine the IC50 and error […]
(§2) y = rmax + (rmin-rmax)/(1+(x/xo)p) Equation 5
Where xo represents the IC50
Fluorescence anisotropy direct titration assays were performed with protein concentration diluted over 16-24 points using 2-fold dilutions. Followed by addition of tracer peptide was added to the wells. For control wells, the tracer peptide was replaced with an identical volume of assay buffer. Plates were read after 45 minutes.
(§3) Competition binding assays:
(§4) FA competition assays were performed in 384 well plates with the concentration of variant […]
(§5) with fixed protein and tracer concentrations. FITC-labelled peptide was added to each well to […]
The total volume in each well was 60 μL. Plates were read after 45 minutes of incubation at […]
ITC experiments were carried out using a Microcal ITC200i instrument (Malvern) at 25°C in 20 mM Tris, 150 mM NaCl, pH 7.5 buffer. […] Data was analysed using Microcal Origin 8 and fitted to a one-binding site model
Spectra were recorded on a Chirascan circular dichroism spectropolarimeter (Applied Photophysics), at 20°C, using 1 mm cells and a scan speed of 5 nm/min. […]
Peptide solubility was assessed using a qualitative test. […]

hSUMO-1 18-97 = biological target: T1, hSUMO-1 18-97 (Homo sapiens, UniProt P63165); experiment: Fluorescence anisotropy competition assay, FITC-peg-SIM tracer / SUMO; type: binding; conditions: competition FA, 50 mM Tris, 150 mM NaCl, 25 nM tracer, 100 nM SUMO, read after 45 min, triplicate
T1 construct: 18-97; His-TEV (N, cleaved yes); made in house
Description: hSUMO-1 18-97 was expressed and purified as previously described from a pet19b His-TEV-SUMO-1 (18-97) construct with cleavage of the tag using TEV protease.4 […]
Fluorescence anisotropy assays were performed in 384-well plates (Greiner Bio-one). Each experiment was run in triplicate and the fluorescence anisotropy measured using a Perkin Elmer EnVisionTM 2103 MultiLabel plate reader, with excitation at 480 nm (30 nm bandwidth), polarised dichroic mirror at 505 nm and emission at 535 nm (40 nm bandwidth, S and P polarised). All assays were performed in 20 mM Tris, 100 mM NaCl, 0.1 mM DTT, pH 7.5 unless otherwise stated and data analysed following previously published methods.
Fluorescence anisotropy data was processed as described previously.[2] Briefly. the data from both the P (perpendicular intensity) and S (parallel intensity) channels, resulting from this measurement and corrected by subtracting the corresponding control wells, were used to calculate the intensity and anisotropy for each well following Equations 1 and 2: […]
For direct titration the average anisotropy (across three experimental replicates) and the standard deviation of these values were then calculated and fit to a logistic model using OriginPro 9.0 to determine the maximum and minimum anisotropies then the fraction bound calculated (Equation 3) and used to determine Kd (equation 4)
Lb= (r‒rmin)/λ(rmax‒r)+r‒rmin Equation 3
y= {(k+ x+[ FL])‒√{k+x+[FL] 2‒4x[FL]}}/2 Equation 4 r = anisotropy, I = total intensity, P = perpendicular intensity, S = parallel intensity, G = instrument factor which was set to 1 for all experiments, Lb = fraction ligand bound, λ = […]
as §1, §2
Where xo represents the IC50 […]
as §3, §4, §5
For control wells, the tracer peptide was replaced with an identical volume of assay buffer.
The total volume in each well was 60 μL. […]

T1 sequence (P63165 18-97): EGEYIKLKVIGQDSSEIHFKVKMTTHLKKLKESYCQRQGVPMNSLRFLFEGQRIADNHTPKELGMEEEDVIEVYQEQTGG

SMILES | maximum solubility / concentration obtained ([1]; qualitative test) | IC50 (hSUMO-1 18-97) | maximum solubility / concentration obtained [1]
CC[C@H](C)[C@H](NC(=O)[C@@H](NC(=O)[C@H](CCC(=O)O)NC(=O)[C@H](CC(=O)O)NC(=O)[C@H](CCC(=O)O)NC(=O)[C@H](CC(N)=O)NC(=O)[C@H](CC(=O)O)NC(C)=O)C(C)C)C(=O)N[C@H](C(=O)N[C@H](C(=O)N[C@@H](Cc1c[nH]c2ccccc12)C(=O)N[C@@H](CCC(=O)O)C(=O)N[C@@H](CCCCN)C(=O)N[C@@H](CCCCN)C(N)=O)C(C)C)[C@@H](C)CC [SIM2705–2717I2708D] | > 8 mM | 14.8 ± 0.7 µM | 
CC[C@H](C)[C@H](NC(=O)[C@H](CCC(=O)O)NC(=O)[C@H](CC(N)=O)NC(=O)[C@H](CC(=O)O)NC(C)=O)C(=O)N[C@@H](CCC(=O)O)C(=O)N[C@H](C(=O)N[C@H](C(=O)N[C@H](C(=O)N[C@H](C(=O)N[C@@H](Cc1c[nH]c2ccccc12)C(=O)N[C@@H](CCC(=O)O)C(=O)N[C@@H](CCCCN)C(=O)N[C@@H](CCCCN)C(N)=O)C(C)C)[C@@H](C)CC)[C@@H](C)CC)C(C)C [SIM2705–2717] |  |  | ~ 1 mM

Source: publication PMC8495968, “Towards optimizing peptide-based inhibitors of protein–protein interactions: predictive saturation variation scanning (PreSaVS)” (RSC Chemical Biology, 2021)
